pIC50: −log10 of the molar value. The source made the active and inactive calls. The rule behind the calls is not given here.
What was measured:
J774 [1] = assay: Cytotoxicity against mouse J774 cells at 12.5 uM incubated for 72 hrs by MTT assay relative to control; assay type: toxicity, cell-based; details: j774, 72 h
Leishmania donovani [2] = assay: Antileishmanial activity against Leishmania donovani promastigotes measured after 48 hrs by MTT assay; assay type: functional, organism-based
Leishmania donovani [3] = assay: Antileishmanial activity against Leishmania donovani amastigotes infected in J774 macrophage assessed as inhibition of parasite growth incubated for 48 hrs by luciferase assay; assay type: functional, organism-based; details: J774, 48 h
[4] = Selectivity index, ratio of CC50 for mouse J774 macrophage to IC50 for Leishmania donovani amastigotes infected in J774 macrophage; assay type: toxicity; details: J774 macrophages, read-out: Ratio CC50/IC50
[5] = Stability of the compound in stimulated intestinal fluid at 10 ug/ml at pH 6.8 measured after 120 min by HPLC analysis; assay type: ADME; details: simulated intestinal fluid, at 10 µg/mL, read-out: Stability
[6] = Stability of the compound in Tris-buffer at 10 ug/ml at pH 7.4 measured upto 120 min by HPLC analysis; assay type: physicochemical; details: at 10 µg/mL, read-out: Stability
Leishmania donovani [7] = assay: Antileishmanial activity against amastigote form of Leishmania donovani infected in BALB/c mouse assessed as inhibition of parasite growth in liver at 20 mg/kg, po measured after 1 week post treatment by geimsa staining based analysis relative to control; assay type: functional; design: scale not given: the % may be the effect or the level left; details: time 1 weeks
Leishmania donovani [8] = assay: Antileishmanial activity against amastigote form of Leishmania donovani infected in BALB/c mouse assessed as inhibition of parasite growth in spleen at 20 mg/kg, po measured after 1 week post treatment by geimsa staining based analysis relative to control; assay type: functional; design: scale not given: the % may be the effect or the level left; details: time 1 weeks
Leishmania donovani [9] = assay: Antileishmanial activity against amastigote form of Leishmania donovani infected in BALB/c mouse assessed as inhibition of parasite growth in spleen at 40 mg/kg, po measured after 1 week post treatment by geimsa staining based analysis relative to control; assay type: functional; design: scale not given: the % may be the effect or the level left; details: time 1 weeks
Splenocyte [10] = assay: Immunostimulatory activity in mouse splenocyte assessed as fold increase in IL-12 synthesis at 10 to 40 mg/kg measured after 1 week by RT-PCR analysis; assay type: functional; details: dose 10-40 mg/kg; time 1 weeks
Splenocyte [11] = assay: Immunostimulatory activity in mouse splenocyte assessed as decrease in IL-10 secretion at 10 to 40 mg/kg measured after 1 week by RT-PCR analysis relative to control; assay type: functional; design: scale not given: the % may be the effect or the level left; details: dose 10-40 mg/kg, time 1 weeks
Leishmania donovani [12] = assay: Antileishmanial activity against Leishmania donovani infected in golden hamster assessed as inhibition of parasite growth in liver at 40 mg/kg, po administered for 7 days and measured after 28 days by giemsa staining based analysis relative to control; assay type: functional; design: scale not given: the % may be the effect or the level left; details: time 28 day
Leishmania donovani [13] = assay: Antileishmanial activity against Leishmania donovani infected in golden hamster assessed as inhibition of parasite growth in liver at 80 mg/kg, po administered for 7 days and measured after 28 days by giemsa staining based analysis relative to control; assay type: functional; design: scale not given: the % may be the effect or the level left; details: time 28 day
Leishmania donovani [14] = assay: Antileishmanial activity against Leishmania donovani infected in golden hamster assessed as inhibition of parasite growth in spleen at 80 mg/kg, po administered for 7 days and measured after 28 days by giemsa staining based analysis relative to control; assay type: functional; design: scale not given: the % may be the effect or the level left; details: time 28 day
[15] = Toxicity in golden hamster infected with Leishmania donovani assessed as reduction in serum AST level at 40 mg/kg ,po and measured after 28 days post infection (reference value: 82.72 IU/L); assay type: organism-based, Mesocricetus auratus; details: in vivo, 672 h, time 28 day
[16] = Toxicity in golden hamster infected with Leishmania donovani assessed as reduction in serum ALT level at 40 mg/kg ,po and measured after 28 days post infection (reference value: 81.58 IU/L); assay type: organism-based, Mesocricetus auratus; details: in vivo, 672 h, time 28 day
[17] = Renal toxicity in golden hamster assessed as effect on urea level at 40 mg/kg, po measured after 28 days post infection; assay type: organism-based, Mesocricetus auratus; details: in vivo, 672 h, time 28 day
J774 [18] = assay: Immunostimulatory activity in mouse J774 macrophage infected with Leishmania donovani assessed as decrease in IL-10 level at 25 uM measured after 24 hrs by RT-PCR analysis relative to control; assay type: functional; design: scale not given: the % may be the effect or the level left
J774 [19] = assay: Immunostimulatory activity in mouse J774 macrophage infected with Leishmania donovani assessed as fold increase in IL-12 level at 25 uM measured after 24 hrs by RT-PCR analysis; assay type: functional
J774 [20] = assay: Downregulation of Akt phosphorylation in mouse J774 macrophage infected with Leishmania donovani at 25 uM measured after 4 to 8 hrs by immunoblot analysis; assay type: functional, cell-based; details: time 4-8 hrs
J774 [21] = assay: Downregulation of GSK-3beta phosphorylation in mouse J774 macrophage infected with Leishmania donovani at 25 uM measured after 8 to 12 hrs by immunoblot analysis; assay type: functional, cell-based; details: time 8-12 hrs
J774 [22] = assay: Downregulation of CREB phosphorylation level at Ser133 residue in mouse J774 macrophage infected with Leishmania donovani at 25 uM measured after 12 to 16 hrs by immunoblot analysis; assay type: functional, cell-based; details: time 12-16 hrs
Leishmania donovani [23] = assay: Induction of cell cycle arrest in Leishmania donovani promastigotes assessed as accumulation of cells at G1 phase at 25 uM measured after 12 hrs by PI staining based flow cytometry analysis (reference value: 35.7%); assay type: functional
Leishmania donovani [24] = assay: Induction of cell cycle arrest in Leishmania donovani promastigotes assessed as accumulation of cells at S phase at 25 uM measured after 4 hrs by PI staining based flow cytometry analysis (reference value: 28.6%); assay type: functional
Leishmania donovani [25] = assay: Induction of cell cycle arrest in Leishmania donovani promastigotes assessed as accumulation of cells at S phase at 25 uM measured after 8 hrs by PI staining based flow cytometry analysis (reference value: 28.6%); assay type: functional
Leishmania donovani [26] = assay: Induction of cell cycle arrest in Leishmania donovani promastigotes assessed as accumulation of cells at S phase at 25 uM measured after 24 hrs by PI staining based flow cytometry analysis (reference value: 28.6%); assay type: functional
Leishmania donovani [27] = assay: Induction of cell cycle arrest in Leishmania donovani promastigotes assessed as accumulation of cells at G2/M phase at 25 uM measured after 4 hrs by PI staining based flow cytometry analysis (reference value: 35.7%); assay type: functional
Leishmania donovani [28] = assay: Induction of cell cycle arrest in Leishmania donovani promastigotes assessed as accumulation of cells at G2/M phase at 25 uM measured after 8 hrs by PI staining based flow cytometry analysis (reference value: 35.7%); assay type: functional
Leishmania donovani [29] = assay: Induction of autophagy in Leishmania donovani promastigotes assessed as appearance of lipid droplets in cytoplasm at 25 uM measured after 24 hrs by Nile red staining based fluorescence microscopic analysis; assay type: functional, organism-based
Leishmania donovani [30] = assay: Induction of autophagy in Leishmania donovani promastigotes assessed as fold induction of ATG5 gene at 25 uM measured after 24 hrs by RT-PCR analysis; assay type: functional
Leishmania donovani [31] = assay: Induction of autophagy in Leishmania donovani promastigotes assessed as fold induction of ATG12 gene at 25 uM measured after 24 hrs by RT-PCR analysis; assay type: functional
Leishmania donovani [32] = assay: Induction of autophagy in Leishmania donovani promastigotes assessed as fold increase in Sir2 transcript level at 25 uM measured after 24 hrs by RT-PCR analysis; assay type: functional
Leishmania donovani [33] = assay: Induction of apoptosis in Leishmania donovani promastigotes assessed as late phase apoptosis at 25 uM measured after 48 hrs by DNA laddering assay; assay type: functional, organism-based
Leishmania donovani [34] = assay: Induction of apoptosis in Leishmania donovani promastigotes assessed as appearance of disorganised mitochondrial cristae at 25 uM by transmission electron microscopy analysis; assay type: functional, organism-based

- remaining at 2 h, 10 ug/ml [5]: 97.5%
- remaining at 2 h, 10 ug/ml [6]: 95.5%
SMILES: Cn1c(-c2ccc(OCC(=O)Nc3ccccn3)cc2)nc2ccccc2c1=O
- Activity (J774 [1]): 90.78%
- pIC50 (Leishmania donovani [2]): 5.47
- pIC50 (Leishmania donovani [3]): 5.45
- selectivity ratio [4]: 18.3
- Activity (Leishmania donovani [7]): >50%
- Activity (Leishmania donovani [8]): >50%
- Activity (Leishmania donovani [9]): 86.3%
- fold change (FC) (Splenocyte [10]): 4.96
- Activity (Splenocyte [11]): 47.69%
- Activity (Leishmania donovani [12]): 66.7%
- Activity (Leishmania donovani [13]): 86.5%
- Activity (Leishmania donovani [14]): 85.8%
- Activity [15]: 123.38 IU/L
- Activity [16]: 101.88 IU/L
- Activity [17]: Non-Toxic
- Activity (J774 [18]): 72.23%
- fold change (FC) (J774 [19]): 3.4
- Activity (J774 [20]): Active
- Activity (J774 [21]): Active
- Activity (J774 [22]): Active
- Activity (Leishmania donovani [23]): 65.8%
- Activity (Leishmania donovani [24]): 25.6%
- Activity (Leishmania donovani [25]): 20.7%
- Activity (Leishmania donovani [26]): 13.9%
- Activity (Leishmania donovani [27]): 30.6%
- Activity (Leishmania donovani [28]): 23.8%
- Activity (Leishmania donovani [29]): Active
- fold change (FC) (Leishmania donovani [30]): 2.84
- fold change (FC) (Leishmania donovani [31]): 8.57
- fold change (FC) (Leishmania donovani [32]): 4.95
- Activity (Leishmania donovani [33]): Active
- Activity (Leishmania donovani [34]): Active

Reference: ChEMBL document CHEMBL5620379, “Discovery, SAR and mechanistic studies of quinazolinone-based acetamide derivatives in experimental visceral leishmaniasis” (Eur J Med Chem, 2023)
